Measured values reported in article PMC8766756, “Insights on Cancer Cell Inhibition, Subcellular Activities, and Kinase Profile of Phenylacetamides Pending 1H-Imidazol-5-One Variants” (Frontiers in Pharmacology, 2022).
Several values for one entry are separate records, joined by “and”; a condition that tells them apart may be missing. Identical values can stand only once.

Key:
Assay in all cases: PamChip tyrosine kinase microarray
Format in all cases: biochemical
Conditions in all cases: 0.1 µM, HL60 lysate
Axl (P30530) = target: T1, Axl (P30530) (Homo sapiens, UniProt P30530)
T1 construct: purchased PamGene (PamChip PTK array, Upstream Kinase Analysis)
T1 sequence (P30530 26-894): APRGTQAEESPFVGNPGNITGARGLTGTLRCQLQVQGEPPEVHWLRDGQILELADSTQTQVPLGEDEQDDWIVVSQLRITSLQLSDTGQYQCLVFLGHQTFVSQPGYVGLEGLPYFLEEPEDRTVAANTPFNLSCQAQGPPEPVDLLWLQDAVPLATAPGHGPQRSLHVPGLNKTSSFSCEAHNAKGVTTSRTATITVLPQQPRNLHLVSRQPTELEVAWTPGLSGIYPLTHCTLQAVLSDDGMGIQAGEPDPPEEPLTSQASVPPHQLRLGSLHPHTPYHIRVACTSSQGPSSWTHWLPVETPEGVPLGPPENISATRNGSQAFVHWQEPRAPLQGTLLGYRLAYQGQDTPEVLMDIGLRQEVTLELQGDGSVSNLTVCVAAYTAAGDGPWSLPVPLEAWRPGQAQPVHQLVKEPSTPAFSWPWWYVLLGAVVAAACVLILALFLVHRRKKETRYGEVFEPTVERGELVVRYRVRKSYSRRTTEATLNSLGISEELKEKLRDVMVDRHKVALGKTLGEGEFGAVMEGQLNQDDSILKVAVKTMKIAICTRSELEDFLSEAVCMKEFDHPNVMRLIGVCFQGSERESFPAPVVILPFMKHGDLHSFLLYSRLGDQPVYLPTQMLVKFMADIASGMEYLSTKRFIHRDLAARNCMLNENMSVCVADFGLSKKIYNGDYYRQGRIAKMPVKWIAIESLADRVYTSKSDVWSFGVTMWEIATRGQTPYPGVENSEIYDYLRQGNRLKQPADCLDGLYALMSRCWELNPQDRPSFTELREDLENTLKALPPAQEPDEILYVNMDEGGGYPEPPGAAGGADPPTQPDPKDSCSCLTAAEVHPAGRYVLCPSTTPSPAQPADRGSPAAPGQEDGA
Procedure, shortened: (§1)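 HL60 (AML) cell lysate was spiked with compound at 0.001, 0.01, 0.1, 1, 10 and 50 µM, or 2% v/v DMSO as control, then profiled in technical replicates on a tyrosine kinase peptide array of 196 phosphosites. Kinase activity was inferred from peptide-set changes using an upstream kinase tool.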

FLT4 (P35916) = target: T2, FLT4 (P35916) (Homo sapiens, UniProt P35916)
T2 construct: purchased PamGene (PamChip PTK array, Upstream Kinase Analysis)
T2 sequence (P35916 25-1363): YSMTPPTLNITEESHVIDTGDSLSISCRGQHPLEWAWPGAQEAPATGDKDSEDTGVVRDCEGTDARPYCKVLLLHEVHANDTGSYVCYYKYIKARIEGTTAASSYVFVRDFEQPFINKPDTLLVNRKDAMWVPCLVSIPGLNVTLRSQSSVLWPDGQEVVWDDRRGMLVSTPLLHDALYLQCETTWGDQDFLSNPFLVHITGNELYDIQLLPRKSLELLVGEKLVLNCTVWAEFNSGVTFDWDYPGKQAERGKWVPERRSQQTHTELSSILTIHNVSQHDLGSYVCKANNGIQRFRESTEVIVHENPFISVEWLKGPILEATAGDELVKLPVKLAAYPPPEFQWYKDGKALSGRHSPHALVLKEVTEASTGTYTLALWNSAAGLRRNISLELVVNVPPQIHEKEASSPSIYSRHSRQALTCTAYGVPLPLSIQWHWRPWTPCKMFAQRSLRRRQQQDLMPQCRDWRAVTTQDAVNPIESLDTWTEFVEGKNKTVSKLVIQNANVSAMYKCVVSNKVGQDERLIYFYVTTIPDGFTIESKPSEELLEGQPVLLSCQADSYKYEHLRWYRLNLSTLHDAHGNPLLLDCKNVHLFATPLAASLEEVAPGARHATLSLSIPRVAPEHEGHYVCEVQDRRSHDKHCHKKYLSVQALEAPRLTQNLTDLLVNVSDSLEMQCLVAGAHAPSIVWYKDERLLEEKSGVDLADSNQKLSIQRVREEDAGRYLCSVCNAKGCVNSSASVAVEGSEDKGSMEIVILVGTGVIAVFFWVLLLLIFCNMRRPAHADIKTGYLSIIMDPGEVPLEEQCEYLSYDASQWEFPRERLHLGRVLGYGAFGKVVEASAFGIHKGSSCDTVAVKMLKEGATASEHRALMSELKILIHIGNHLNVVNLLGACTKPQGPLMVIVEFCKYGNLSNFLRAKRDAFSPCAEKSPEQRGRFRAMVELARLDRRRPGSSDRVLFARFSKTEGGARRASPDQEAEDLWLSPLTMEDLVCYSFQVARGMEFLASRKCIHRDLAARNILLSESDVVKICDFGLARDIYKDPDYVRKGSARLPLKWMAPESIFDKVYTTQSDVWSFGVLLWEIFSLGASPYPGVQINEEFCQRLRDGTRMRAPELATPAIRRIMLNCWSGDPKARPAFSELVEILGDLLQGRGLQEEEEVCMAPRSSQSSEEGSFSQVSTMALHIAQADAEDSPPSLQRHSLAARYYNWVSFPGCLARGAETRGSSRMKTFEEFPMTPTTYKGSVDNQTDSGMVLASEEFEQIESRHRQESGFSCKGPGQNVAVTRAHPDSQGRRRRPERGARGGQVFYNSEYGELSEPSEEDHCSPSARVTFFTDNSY
Procedure, shortened: as §1

FLT1 (P17948) = target: T3, FLT1 (P17948) (Homo sapiens, UniProt P17948)
T3 construct: purchased PamGene (PamChip PTK array, Upstream Kinase Analysis)
Procedure, shortened: as §1

ALK (Q9UM73) = target: T4, ALK (Q9UM73) (Homo sapiens, UniProt Q9UM73)
T4 construct: purchased PamGene (PamChip PTK array, Upstream Kinase Analysis)
T4 sequence (Q9UM73 19-1620): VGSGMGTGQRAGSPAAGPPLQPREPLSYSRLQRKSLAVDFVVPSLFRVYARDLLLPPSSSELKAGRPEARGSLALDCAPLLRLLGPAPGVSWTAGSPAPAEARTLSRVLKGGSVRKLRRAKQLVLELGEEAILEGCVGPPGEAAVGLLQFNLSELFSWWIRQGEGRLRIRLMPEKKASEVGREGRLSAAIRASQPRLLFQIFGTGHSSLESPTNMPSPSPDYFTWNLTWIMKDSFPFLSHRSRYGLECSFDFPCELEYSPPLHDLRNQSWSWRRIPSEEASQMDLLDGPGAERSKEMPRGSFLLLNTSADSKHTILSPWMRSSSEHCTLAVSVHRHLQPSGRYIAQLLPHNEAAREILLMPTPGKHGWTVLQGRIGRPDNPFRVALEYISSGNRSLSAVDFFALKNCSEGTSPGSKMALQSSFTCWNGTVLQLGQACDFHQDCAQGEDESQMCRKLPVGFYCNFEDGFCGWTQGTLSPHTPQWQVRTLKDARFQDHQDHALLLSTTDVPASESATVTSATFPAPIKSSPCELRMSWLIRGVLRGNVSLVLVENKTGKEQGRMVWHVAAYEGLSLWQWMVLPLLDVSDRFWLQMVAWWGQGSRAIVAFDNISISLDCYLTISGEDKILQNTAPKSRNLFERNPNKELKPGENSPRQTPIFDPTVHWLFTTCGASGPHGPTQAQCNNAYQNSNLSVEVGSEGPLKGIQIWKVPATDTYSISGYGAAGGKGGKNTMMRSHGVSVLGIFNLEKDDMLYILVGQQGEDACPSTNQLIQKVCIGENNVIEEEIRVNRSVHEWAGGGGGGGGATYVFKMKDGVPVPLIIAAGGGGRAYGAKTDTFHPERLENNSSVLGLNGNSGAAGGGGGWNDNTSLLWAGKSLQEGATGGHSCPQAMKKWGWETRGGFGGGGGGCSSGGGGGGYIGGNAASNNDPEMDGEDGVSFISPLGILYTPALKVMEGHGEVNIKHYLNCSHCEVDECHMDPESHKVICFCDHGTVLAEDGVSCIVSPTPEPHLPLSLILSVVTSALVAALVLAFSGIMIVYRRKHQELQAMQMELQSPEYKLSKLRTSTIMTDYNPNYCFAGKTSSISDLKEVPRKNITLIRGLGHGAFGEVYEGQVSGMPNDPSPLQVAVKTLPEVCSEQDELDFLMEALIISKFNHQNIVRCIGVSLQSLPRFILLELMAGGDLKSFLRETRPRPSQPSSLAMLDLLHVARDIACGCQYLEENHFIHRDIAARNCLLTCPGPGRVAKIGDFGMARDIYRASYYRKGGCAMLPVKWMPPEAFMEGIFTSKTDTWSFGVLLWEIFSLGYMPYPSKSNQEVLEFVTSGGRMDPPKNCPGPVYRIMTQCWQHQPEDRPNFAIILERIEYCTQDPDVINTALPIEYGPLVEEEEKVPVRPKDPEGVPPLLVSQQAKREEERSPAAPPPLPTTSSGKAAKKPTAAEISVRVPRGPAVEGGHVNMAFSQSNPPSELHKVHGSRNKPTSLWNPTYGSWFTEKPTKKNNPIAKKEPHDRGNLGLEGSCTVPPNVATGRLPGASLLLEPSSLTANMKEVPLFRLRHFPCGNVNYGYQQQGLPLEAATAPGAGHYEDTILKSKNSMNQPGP
Procedure, shortened: as §1

IRR (P14616) = target: T5, IRR (P14616) (Homo sapiens, UniProt P14616)
T5 construct: purchased PamGene (PamChip PTK array, Upstream Kinase Analysis)
T5 sequence (P14616 27-1297): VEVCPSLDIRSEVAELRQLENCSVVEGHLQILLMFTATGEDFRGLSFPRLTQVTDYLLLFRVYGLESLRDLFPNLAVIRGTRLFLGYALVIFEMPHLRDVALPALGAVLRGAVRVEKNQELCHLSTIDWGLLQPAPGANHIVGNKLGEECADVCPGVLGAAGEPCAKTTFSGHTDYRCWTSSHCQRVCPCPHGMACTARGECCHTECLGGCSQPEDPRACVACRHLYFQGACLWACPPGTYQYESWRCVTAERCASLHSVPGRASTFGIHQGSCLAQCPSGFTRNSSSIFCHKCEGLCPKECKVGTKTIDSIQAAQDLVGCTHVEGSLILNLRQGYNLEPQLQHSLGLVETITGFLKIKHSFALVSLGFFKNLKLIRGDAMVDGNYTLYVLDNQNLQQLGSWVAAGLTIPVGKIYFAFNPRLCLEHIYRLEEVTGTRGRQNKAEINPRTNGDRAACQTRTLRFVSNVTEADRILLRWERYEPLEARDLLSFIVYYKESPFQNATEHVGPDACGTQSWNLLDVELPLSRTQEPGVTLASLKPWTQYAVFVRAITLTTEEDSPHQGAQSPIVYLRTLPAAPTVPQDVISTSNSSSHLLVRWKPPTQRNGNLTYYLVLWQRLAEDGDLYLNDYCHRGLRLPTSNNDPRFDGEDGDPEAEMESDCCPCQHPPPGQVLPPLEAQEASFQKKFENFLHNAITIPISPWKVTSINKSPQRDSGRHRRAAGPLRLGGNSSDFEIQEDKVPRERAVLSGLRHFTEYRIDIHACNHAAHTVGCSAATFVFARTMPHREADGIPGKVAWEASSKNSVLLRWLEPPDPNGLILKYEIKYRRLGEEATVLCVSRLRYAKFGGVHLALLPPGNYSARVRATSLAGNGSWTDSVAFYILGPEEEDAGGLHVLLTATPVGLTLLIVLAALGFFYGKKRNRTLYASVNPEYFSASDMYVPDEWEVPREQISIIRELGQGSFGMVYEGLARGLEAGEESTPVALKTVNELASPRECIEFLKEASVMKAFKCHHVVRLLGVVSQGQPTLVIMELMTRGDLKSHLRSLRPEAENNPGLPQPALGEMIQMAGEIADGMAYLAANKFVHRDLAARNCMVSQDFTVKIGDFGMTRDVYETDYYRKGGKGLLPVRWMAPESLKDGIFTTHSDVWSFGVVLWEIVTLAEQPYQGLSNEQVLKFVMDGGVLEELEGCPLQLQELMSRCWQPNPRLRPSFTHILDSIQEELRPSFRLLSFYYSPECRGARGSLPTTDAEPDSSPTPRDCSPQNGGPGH
Procedure, shortened: as §1

COc1ccc(/C=C2\N=C(C)N(c3ccc(CC(=O)NCc4ccccc4)cc3)C2=O)cc1 [Compound 4c, (Z)-N-Benzyl-2-(4-(4-(4-methoxybenzylidene)-2-methyl-5-oxo-4,5-dihydro-1H-imidazol-1-yl)phenyl)acetamide]
Mean Final score (Kinase score) (Axl (P30530)): 2.569
Mean Kinase Statistic (Axl (P30530)): -1.219
Mean Significance Score (Axl (P30530)): 2.048
Mean Specificity Score (Axl (P30530)): 0.5684
Mean Significance Score (FLT4 (P35916)): 2.048
Mean Specificity Score (FLT4 (P35916)): 1.142
Mean Final score (Kinase score) (FLT4 (P35916); listed as KIM-161): 3.15 and 3.152
Mean Significance Score (FLT1 (P17948)): 2.048
Mean Specificity Score (FLT1 (P17948)): 1.113
Mean Final score (Kinase score) (FLT1 (P17948); listed as KIM-161): 3.23 and 3.228
Mean Final score (Kinase score) (ALK (Q9UM73)): 2.186
Mean Kinase Statistic (ALK (Q9UM73)): -1.125
Mean Significance Score (ALK (Q9UM73)): 2.048
Mean Specificity Score (ALK (Q9UM73)): 0.1497
Mean Final score (Kinase score) (IRR (P14616)): 2.412
Mean Kinase Statistic (IRR (P14616)): -1.1771
Mean Significance Score (IRR (P14616)): 2.053
Mean Specificity Score (IRR (P14616)): 0.3184
